Measured values as given in patent US20020040031A1, “Methods for prevention of accumulation of amyloid beta peptide in the central nervous system” (priority 2000, published 2002).

Experiments:
[1] = test system: sAPP secretion in PC12 cells; assay: sAPP secretion in PC12 cells, Western immunoblot of conditioned media (Example 1); type: cell-based; conditions: for secretion of sAPP versus control: single agent, PC12 conditioned media, 48 hours, 22C11 immunoblot, NGF 10 and 50 ng/ml, bFGF 50 ng/ml, AIT-082 different doses
Description: Treatment of Cells and Preparation of Cell Extract. PC12 cells were first grown to 70-80% confluence in the regular medium. A day prior to the experiment, PC12 cells were subcultured uniformly onto the plate with minimum cellular aggregation/ clumping to approximately 1×10^6 cells per 60-mm plate. The PC12 cells were then subjected to treatments with either AIT-082, NGF, bFGF or a combination as previously described (4). AIT-082 was added into separate plates at […] different doses: 0, 5, 20, 30, 50, 100, 300 ng/ ml and also 1, 3, 10, 30, 100 μg/ml. For comparative purposes, cultures were treated with NGF at 10 and 50 ng/ml, and bFGF was used at 50 ng/ml. Additional cultures contained both AIT-082 (300 ng/ml) and either NGF (50 ng/ml) or bFGF (50 ng/ml). Following incubation for 48 hours, the conditioned medium from each plate was collected.
PAGE and Western Immunoblotting. Total proteins from the conditioned media were analyzed on a 12% polyacrylamide gel containing SDS (SDS-PAGE), and western blot analysis was performed in the Mini-PROTEAN II system of Bio-Rad as described previously (6). sAPP was detected using the 22C11 (Boehringer Mannheim, Indianapolis, Ind.). A biotinylated secondary antibody, horse anti-mouse (Boehringer Mannheim), was also used. The detection system was based on the avidin-biotinylated-complex (Vector labs, Burlingame, Calif.) and enzymatic color reactions.
Treatment of NGF or bFGF Results in a Substantial Increase in sAPP Secretion in PC12 Cells. In denaturing polyacrylamide gel, an equal amount of total protein was loaded from each of the conditioned medium samples. After 48 hours of incubation, 50 μg samples of conditioned media were subjected to SDS-PAGE (12%) and transferred to a nitrocellulose membrane. Protein size markers shown on the left of the blot from top to bottom are: 107, 74, 49.3, 36.4, and 28.5 kDa. For FIG. 1, the transferred proteins were probed with anti-APP antibody (22C11), and immunodetection was carried out by the enzymatic color method as described previously (5). Two distinct bands of 110 and 95 kDa were detected, which correspond to soluble APP derivatives (sAPP) arising from different alternate forms of APP and/or their posttranslationally modified derivatives.

[2] = test system: sAPP secretion in PC12 cells; assay: Time course of sAPP secretion in PC12 cells, Western immunoblotting (Example 2); type: cell-based; conditions: PC12 cells treated for 6, 12, 24, 48, or 72 hours; AIT-082 10 nM-100 μM; RPMI 1640 and 0.5% FBS
Description: To determine the time course of sAPP secretion after administration of AIT-082 or NGF to PC12 cells, an experiment similar to the experiment of Example 1 was carried out using multiple time points. Five to six million PC12 cells were treated in RPMI 1640 and 0.5% FBS with doses of AIT-082 (10 nM-100 μM). […] Levels of sAPP in samples from conditioned media and cell lysates were measured by Western immunoblotting with anti-sAPP antibody. When PC12 cells were treated with AIT-082 for 6, 12, 24, 48, or 72 hours, there was an increase in levels of secreted sAPP.

PC12 cells = assay: NGF-mediated differentiation of PC12 cells (Example 2); type: cell-based
[3] = test system: secretion of Aβ in cultured PC12 cells; assay: Secretion of Aβ in cultured PC12 cells, sandwich ELISA (Example 3); type: cell-based; conditions: AIT-082 100 μg/ml, PC12 conditioned media
Description: To determine the effect of AIT-082 on Aβ levels, PC12 cells were treated with a high dose of AIT-082 (100 μg/ ml) and the conditioned media was analyzed for Aβ. Levels of total Aβ were measured using a sensitive sandwich ELISA. Experiments were done in triplicate and the values were obtained from known standards run in parallel with the samples as described previously (A. Becher et al., “The Synaptophysin-Synaptobrevin Complex: A Hallmark of Synaptic […] Maturation,” J. Neurosci. 19: 1922-1931).

[4] = test system: nerve growth factor (NGF), neurotrophin-3, and basic fibroblast growth factor (bFGF); conditions: at least three neurotrophins; reference 3; cited from earlier work
[5] = test system: sAPP release from PC12 cultures; conditions: previously shown, reference 7; cited from earlier work

O=C(CCn1cnc2c(=O)[nH]cnc21)Nc1ccc(C(=O)O)cc1 [AIT-082, N-4-carboxyphenyl-3-(6-oxohydropurin-9-yl) propanamide]
levels of extracellular sAPP versus control cultures (dose response, densitometry, FIG. 2) ([1]; AIT-082 5-300 ng/ml, PC12): statistically significantly higher
secretion of sAPP versus control [1]: significant increase
levels of secreted sAPP [2]: increase
effect of cotreatment on NGF-mediated differentiation (PC12 cells; AIT-082 cotreatment with NGF, PC12 cells): enhanced NGF-mediated differentiation
Percent change from controls (total Aβ) [3]: −20%
Levels of total Aβ ([3]; triplicate): 136 ± 6 fmols/ml
expression of neurotrophins (NGF, neurotrophin-3, bFGF) [4]: induce the expression

NGF: Nerve growth factor procured from Life Technologies
secretion of sAPP versus control [1]: significant increase
differentiation phenotype of PC12 cells (PC12 cells; NGF treatment alone): sympathetic neuronal phenotypes
release of sAPP from PC12 cultures [5]: induce the release of sAPP

bFGF: basic fibroblast growth factor procured from Life Technologies
secretion of sAPP versus control [1]: slight increase
